The assay addresses BACE1 (Memapsin 2) (Homo sapiens, UniProt P56817). Kind of assay: Inhibition of BACE1 (memapsin 2) catalytic activity, fluorogenic substrate FS-2. The assay is classed as biochemical. To be noted: inhibition constants of BACE1; pH 4, 37° C. As to the method: Inhibition of BACE1 (Memapsin 2). Potency of compounds are determined by measurement of their inhibition of memapsin 2 catalytic activity toward a fluorescent substrate. […] Briefly, assays are performed at pH 4, 37° C., by pre-incubation of memapsin 2 enzyme with compound for 20 minutes. Activity measure is initiated by addition of a fluorogenic substrate FS-2 (Bachem Americas, Torrance, Calif.). Fluorescent signal increase over time is measured as a rate of hydrolysis of the peptide substrate. […]

BACE1 (Memapsin 2), sequence (P56817 46-501): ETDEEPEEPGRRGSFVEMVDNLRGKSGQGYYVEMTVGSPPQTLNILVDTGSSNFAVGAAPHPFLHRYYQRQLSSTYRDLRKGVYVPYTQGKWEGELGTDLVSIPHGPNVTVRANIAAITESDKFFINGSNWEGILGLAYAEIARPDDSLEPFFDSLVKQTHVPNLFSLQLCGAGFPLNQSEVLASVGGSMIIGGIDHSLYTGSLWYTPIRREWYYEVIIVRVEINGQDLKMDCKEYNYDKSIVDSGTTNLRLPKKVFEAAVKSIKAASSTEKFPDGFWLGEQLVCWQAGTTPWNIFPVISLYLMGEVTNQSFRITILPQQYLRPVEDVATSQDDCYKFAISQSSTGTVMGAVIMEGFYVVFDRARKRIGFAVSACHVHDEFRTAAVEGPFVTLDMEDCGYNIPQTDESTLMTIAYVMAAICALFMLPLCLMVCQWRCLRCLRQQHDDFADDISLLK

Take `C[C@@H](NC(=O)c1cc(C(=O)N[C@H](CN[C@H](CO)Cc2ccccc2)Cc2ccccc2)cc(N(C)S(C)(=O)=O)c1)c1ccccc1` [Example 0397]: the Ki was under 1000 µM.

In turn, `C[C@@H](NC(=O)c1cc(C(=O)N[C@H](CN[C@@H]2c3ccccc3C[C@@H]2O)Cc2ccccc2)cc(N(C)S(C)(=O)=O)c1)c1ccccc1` [Example 0407] returned a Ki of under 1000 µM.

The molecule `COC(=O)[C@H](NC[C@H](Cc1ccccc1)NC(=O)c1cc(C(=O)N[C@H](C)c2ccccc2)cc(N(C)S(C)(=O)=O)c1)[C@@H](C)O` [Example 0417] came in with a Ki of under 1000 µM.

Turning to `C[C@@H](NC(=O)c1cc(C(=O)N[C@H](CN[C@H]2c3ccccc3C[C@H]2O)Cc2ccccc2)cc(N(C)S(C)(=O)=O)c1)c1ccccc1` [Example 0427], the inhibition constant (Ki) is under 1000 µM.

`COc1cccc([C@@H](NC[C@H](Cc2ccccc2)NC(=O)c2cccc(C(=O)N(C)Cc3nc(C)cs3)c2)[C@H](O)Cc2ccccc2)c1` [Example 0439] yielded an inhibitory constant (Ki) of over 1000 µM.

For the molecule `COc1cccc([C@H](NC[C@H](Cc2ccccc2)NC(=O)c2cccc(C(=O)N(C)Cc3nc(C)cs3)c2)[C@H](O)Cc2ccccc2)c1` [Example 0449], the inhibition constant Ki is over 1000 µM.

For the molecule `Cc1csc(CN(C)C(=O)c2cccc(C(=O)N[C@H](CN[C@H](C(=O)NCC(C)C)[C@H](C)O)Cc3ccccc3)c2)n1` [Example 0637], the Ki is under 1000 µM.

In turn, `Cc1csc(CN(C)C(=O)c2cccc(C(=O)N[C@H](CN[C@@H]3c4ccccc4C[C@@H]3O)Cc3ccccc3)c2)n1` [Example 0647] displayed an inhibition constant Ki of under 1000 µM.

For `COC(=O)[C@H](NC[C@H](Cc1ccccc1)NC(=O)c1cccc(C(=O)N(C)Cc2nc(C)cs2)c1)[C@@H](C)O` [Example 0667], the inhibition constant Ki was over 1000 µM.

As to `CC(C)CNC[C@@H](NC[C@H](Cc1ccccc1)NC(=O)c1cc(C(=O)N[C@H](C)c2ccccc2)cc(N(C)S(C)(=O)=O)c1)[C@H](C)O` [Example 1439], the Ki was under 0.1 µM.

`CC(C)CNC[C@@H](NC[C@H](Cc1ccccc1)NC(=O)c1cc(C(=O)N[C@H](C)c2ccccc2)cc(N(C)S(C)(=O)=O)c1)[C@@H](O)CC(C)C` [Example 1479] displayed an inhibition constant (Ki) of under 0.1 µM.

Values taken from US8859590B2, “Inhibitors of BACE1 and methods for treating Alzheimer's disease” (Purdue Research Foundation, priority 2008, dated 2014).
